Values after ≈ are worked out from the molar mass of the structure shown.
Details: buffer; pH 7.4; 200.0 µM
In the case of `O=C(CSc1nnc(-c2ccccn2)o1)Nc1ccccc1`, the solubility kinetic is reported as greater than 46.9 µg/mL.
For `CCCCN(C(=O)c1cccs1)c1c(N)n(Cc2ccccc2)c(=O)[nH]c1=O`, the solubility kinetic was 6.1 µg/mL (≈ 15.3 µM).
In the case of `CC1CCCCC1NC(=O)Cn1cnc2c1c(=O)n(C)c(=O)n2C` (stereo not given), the solubility kinetic is reported as greater than 50 µg/mL.
`O=C(COC(=O)/C=C/c1ccc(OC(F)F)cc1)NC(=O)NC1CCCCC1` gave a solubility kinetic of 4.5 µg/mL (≈ 11.4 µM).
Compound `O=C1N(Cc2cccc(Cl)c2)C[C@@H]2C[C@@H](c3ccccn3)N3CCC[C@@]123` has a solubility kinetic of 39 µg/mL (≈ 106 µM).
In the case of `Cc1ccc(S(=O)(=O)N2CCOCC2)cc1NC(=O)COC(=O)Cc1ccccc1`, the solubility kinetic is reported as greater than 64.9 µg/mL.
In the case of `O/C=c1\ccc2cccc3nc(C(F)(F)F)nc1c23`, the solubility kinetic is reported as 5.5 µg/mL (≈ 20.8 µM).
`O=C(O)CNS(=O)(=O)Cc1ccccc1` gave a solubility kinetic of 29 µg/mL (≈ 126 µM).
Compound `COC(=O)c1sccc1NC(=O)c1ccc(C(C)C)cc1` has a solubility kinetic of less than 0.6 µg/mL.
`O=[N+]([O-])c1ccc(NCCCO)c(S(=O)(=O)N2CCOCC2)c1` gave a solubility kinetic of 48.8 µg/mL (≈ 141 µM).
With `CN(CCc1ccccc1)c1ccc([N+](=O)[O-])cn1` the solubility kinetic was 9.6 µg/mL (≈ 37.3 µM).
Work on `CCOc1cc(C=O)ccc1OCCn1c([N+](=O)[O-])cnc1C` yielded a solubility kinetic of 18.1 µg/mL (≈ 56.7 µM).
Compound `C/C(=C\c1ccccc1)CN1CCN(C)CC1` has a solubility kinetic of 18.1 µg/mL (≈ 78.6 µM).
In the case of `Brc1cccc2sc(N3CCCC3)nc12`, the solubility kinetic is reported as 5.2 µg/mL (≈ 18.4 µM).
In the case of `Cc1ccc(/C=C/C(=O)O)cc1S(=O)(=O)N1CCCc2ccccc21`, the solubility kinetic is reported as greater than 53.6 µg/mL.
`O=C(Nc1cc(Cl)ccc1Cl)c1cc(-c2ccco2)on1` showed a solubility kinetic of 0.7 µg/mL (≈ 2.17 µM).
`CCN(CC)CCN=Cc1c(O)n(Cc2ccco2)c(=O)[nH]c1=O` showed a solubility kinetic greater than 50.2 µg/mL.
`CC(=O)N/C(=C\c1ccccc1)C(=O)OCc1ccccc1` showed a solubility kinetic greater than 44.3 µg/mL.
For `CC1CCN(CC(=O)Nc2cccc(Cl)c2)CC1`, the solubility kinetic was 39.7 µg/mL (≈ 149 µM).
`CNS(=O)(=O)c1ccc(N2CCCC2)c([N+](=O)[O-])c1` gave a solubility kinetic greater than 42.8 µg/mL.
`CN1CCN(C(=O)c2cc(=O)c3cc(Cl)cc(Cl)c3o2)CC1` showed a solubility kinetic of 50.5 µg/mL (≈ 148 µM).
In the case of `Nc1ccccc1C(=O)NC1CCCCNC1=O` (stereo not given), the solubility kinetic is reported as greater than 37.1 µg/mL.
For `Cc1ccccc1NC(=S)Nc1ccccc1`, the solubility kinetic was 18.8 µg/mL (≈ 77.6 µM).
In the case of `Cc1ccc(NC(CC(=O)c2ccccc2)C(=O)O)cc1Cl` (stereo not given), the solubility kinetic is reported as 10.2 µg/mL (≈ 32.1 µM).
Work on `Cc1ccc(S(=O)(=O)NCc2ccccn2)c(C)c1` yielded a solubility kinetic greater than 41.5 µg/mL.
With `COc1ccc(NCCc2ccccn2)cc1.Cl` the solubility kinetic was greater than 45.2 µg/mL.
For `CC(C)c1cc(CN2CCOCC2)cc(C(C)C)c1O`, the solubility kinetic was greater than 41.6 µg/mL.
Work on `COc1cc(C(=O)COC(=O)c2ccncc2)cc(OC)c1OC` yielded a solubility kinetic greater than 49.7 µg/mL.
`O=C(CS(=O)(=O)c1ccccc1Cl)N1CCOCC1` gave a solubility kinetic of 43.8 µg/mL (≈ 144 µM).
For `CC(=O)N1C(=O)NC(c2ccccc2)=C([N+](=O)[O-])C1c1ccccc1` (stereo not given), the solubility kinetic was 43.2 µg/mL (≈ 128 µM).
Compound `O=C(O)Cc1ccc2oc(-c3ccccn3)nc2c1` has a solubility kinetic greater than 38.1 µg/mL.
`O=C(COC(=O)c1c[nH]c2ccccc12)Nc1ccc(F)cc1` showed a solubility kinetic of 3.1 µg/mL (≈ 9.93 µM).
In the case of `S=C1NCCNC(=S)NCCOCCOCCOCCN1`, the solubility kinetic is reported as greater than 50.5 µg/mL.
Compound `CC(=O)N1CCN(C(=O)CSc2ncnc3sc(C)c(C)c23)CC1` has a solubility kinetic greater than 54.7 µg/mL.
Compound `CC(=O)c1cnc(-c2cccc(Cl)c2)s1` has a solubility kinetic of 1.3 µg/mL (≈ 5.47 µM).
In the case of `COc1ccc(/C=C/C(=O)OCC(=O)NC2CCCC(C)C2C)c(OC)c1` (stereo not given), the solubility kinetic is reported as 5 µg/mL (≈ 13.3 µM).
In the case of `CSCCC1COC(c2cccs2)=N1` (stereo not given), the solubility kinetic is reported as 29 µg/mL (≈ 128 µM).
`CC(C)CCC1(C)NC(=O)N(CC(=O)NCC(=O)Nc2ccc(F)c(F)c2F)C1=O` (stereo not given) gave a solubility kinetic greater than 64.3 µg/mL.
Compound `C=CCn1c(NC(=O)c2ccccc2)nc2ccccc21` has a solubility kinetic of 0.8 µg/mL (≈ 2.88 µM).
`COc1cccc2cc(-c3nc4ccccc4[nH]3)c(=O)oc12` showed a solubility kinetic of less than 0.3 µg/mL.
`Cc1nc(-c2ccccc2)sc1C(=O)Nc1ccccc1F` showed a solubility kinetic of 1.8 µg/mL (≈ 5.76 µM).
`O=C(Nc1ccc2c(c1)OCCO2)c1ccc(Br)cc1` gave a solubility kinetic of less than 0.7 µg/mL.
With `O=C(COC(=O)c1cc(S(=O)(=O)N2CCOCC2)ccc1F)NC1CC1` the solubility kinetic was 55.1 µg/mL (≈ 143 µM).
With `NC(N)=S` the solubility kinetic was greater than 11.4 µg/mL.
Compound `Cc1cc(O)c(C(=O)Cc2csc(C)n2)c(O)c1` has a solubility kinetic of 4.1 µg/mL (≈ 15.6 µM).
`COc1ccc2c(CC(=O)Nc3ccc(OC)nc3)coc2c1` showed a solubility kinetic of 14.8 µg/mL (≈ 47.4 µM).
`NC(=O)C1CCN(C(=O)CCc2ccsc2)CC1` showed a solubility kinetic greater than 40 µg/mL.
`O=C(CNS(=O)(=O)c1c(F)cccc1F)NC1CCCc2ccccc21` (stereo not given) gave a solubility kinetic greater than 57.1 µg/mL.
In the case of `COc1ccc(CNC(=O)Nc2ccccc2)cc1`, the solubility kinetic is reported as 13.5 µg/mL (≈ 52.7 µM).
`Cc1cc(NC(=O)COc2ccc([N+](=O)[O-])cc2)no1` showed a solubility kinetic of 5.8 µg/mL (≈ 20.9 µM).
Compound `COc1cc2c(C(=O)O)c(C)n(C)c2c2ccccc12` has a solubility kinetic of 7.4 µg/mL (≈ 27.5 µM).
With `Cc1cc(OCC(=O)N(C)Cc2ccccc2)ccc1Br` the solubility kinetic was 22.7 µg/mL (≈ 65.2 µM).
For `O=C(O)c1ccc2cc(-c3ccccc3)[nH]c2c1`, the solubility kinetic was 31.2 µg/mL (≈ 132 µM).
Compound `O=C(Nc1cccnc1)OC1CCCCC1` has a solubility kinetic greater than 33 µg/mL.
`COc1ccccc1CC(=O)N1CCN(c2ccccc2F)CC1` showed a solubility kinetic of 46.8 µg/mL (≈ 143 µM).
Work on `CCN(c1ccccc1)S(=O)(=O)c1cc(C(=O)NCC(c2ccco2)N2CCCCC2)ccc1C` (stereo not given) yielded a solubility kinetic of 18.2 µg/mL (≈ 36.7 µM).
`CC1=CC(C)(C)[N+](C)(C)c2ccccc21.[I-]` gave a solubility kinetic of 41 µg/mL.
Work on `CC(NC(=O)c1ccccc1Cl)c1ccc(-n2ccnc2)cc1` (stereo not given) yielded a solubility kinetic greater than 48.9 µg/mL.
`COc1cc(CCC(=O)Nc2ncc(C)s2)cc(OC)c1OC` gave a solubility kinetic of 18.8 µg/mL (≈ 55.9 µM).
For `COc1ccc(C(=O)OCC(=O)Nc2c(C)cccc2C)cc1`, the solubility kinetic was less than 0.7 µg/mL.
